According to patent publication US11337971B2, “Dopamine D3 receptor selective antagonists/partial agonists and uses thereof” (THE UNITED STATES OF AMERICA, AS REPRESENTED BY THE …, priority 2018, dated 2022):

Tests used:
human D3R = human D3R (Homo sapiens (Human), UniProt P35462); experiment: Radioligand competition binding, [3H]N-methylspiperone, HEK293 membranes expressing human D3R; details: Table 1A; for Ki: HEK 293 cells transfected with hD3R, [3H]N-methylspiperone, read-out: D3R Ki ± SEM; for D2/D3: ratio of Ki values
Chain of human D3R (P35462 whole entry): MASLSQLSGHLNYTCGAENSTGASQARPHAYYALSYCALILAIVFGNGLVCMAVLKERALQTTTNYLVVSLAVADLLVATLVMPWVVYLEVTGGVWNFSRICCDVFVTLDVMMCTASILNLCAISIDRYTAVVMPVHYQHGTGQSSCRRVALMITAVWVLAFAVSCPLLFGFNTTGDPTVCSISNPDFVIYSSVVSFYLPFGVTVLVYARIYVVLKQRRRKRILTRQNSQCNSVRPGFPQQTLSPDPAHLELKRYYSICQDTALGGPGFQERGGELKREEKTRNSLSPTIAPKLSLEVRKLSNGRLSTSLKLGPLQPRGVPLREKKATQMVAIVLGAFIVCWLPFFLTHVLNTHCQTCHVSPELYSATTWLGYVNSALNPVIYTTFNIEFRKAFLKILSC
Procedure: (§1) Binding at dopamine D2-like receptors was determined using previously described methods. […] Upon reaching 80-90% confluence, cells were harvested using pre-mixed Earle's Balanced Salt Solution (EBSS) with […] EDTA (Life Technologies) and centrifuged at 3000 rpm for 10 min at 21° C. The supernatant was removed and the pellet was resuspended in 10 mL hypotonic lysis buffer (5 mM MgCl2.6H2O, 5 mM Tris, pH 7.4 at 4° C.) and centrifuged at 20,000 rpm for 30 min at 4° C. The pellet was then resuspended in fresh EBSS buffer made from 8.7 g/L Earle's Balanced Salts without phenol red (US Biological, Salem, Mass.), 2.2 g/L sodium bicarbonate, pH to 7.4. A Bradford protein assay (Bio-Rad, Hercules, Calif.) was used to determine the protein concentration and membranes were diluted to 500 μg/mL and stored in a −80° C. freezer for later use.
(§2) Radioligand competition binding experiments were conducted using thawed membranes. Test compounds were freshly dissolved in 30% DMSO and 70% H2O to a stock concentration of 100 μM. To assist the solubilization of free-base compounds, 10 μl of glacial acetic acid was added along with the DMSO. Each test compound was then diluted into 13 half-log serial dilutions using 30% DMSO vehicle; final test concentrations ranged from 10 μM to 10 pM. Previously frozen membranes were diluted in fresh EBSS to a 100 μg/mL (for hD2R or hD3R) or 200 μg/mL (hD4R) stock for binding. […] buffer with 0.2 mM sodium metabisulfite, 50 μl of diluted test compound, 100 μl of membranes (10 μg total protein for hD2R or hD3R, 20 μg total protein for hD4R), and 50 μl of [^3H]N-methylspiperone (0.4 nM final concentration; Perkin Elmer). Nonspecific binding was determined using 10 μM butaclamol (Sigma-Aldrich, St. Louis, Mo.) and total binding was determined with 30% DMSO vehicle. All compound dilutions were tested in triplicate and the reaction incubated for one hour at room temperature. The reaction was terminated by filtration through Whatman GF/B filters, presoaked for one hour in 0.5% polyethylenimine, using a Brandel R48 filtering manifold (Brandel Instruments, Gaithersburg, Md.). The filters were washed 3 times with 3 mL of ice cold EBSS buffer and transferred to scintillation vials. […] IC50 values for each compound were determined from dose-response curves and Ki values were calculated using the Cheng-Prusoff equation; these analyses were performed using GraphPad Prism version 5.00 for Windows (GraphPad Software, San Diego, Calif.). Reported Ki values were determined from least three independent experiments.
(§3) The binding affinities of the compounds were evaluated by performing competition binding studies with [^3H]N-methylspiperone using membranes prepared from HEK293 cells expressing either the human D2R or D3R.

human D4R = human D4R (Homo sapiens (Human), UniProt P21917); experiment: Radioligand competition binding, [3H]N-methylspiperone, HEK293 membranes expressing human D4R; details: Table 1A; for Ki: [3H]N-methylspiperone, read-out: D4R Ki ± SEM; for D4/D2 / D4/D3: ratio of Ki values
Chain of human D4R (P21917 whole entry): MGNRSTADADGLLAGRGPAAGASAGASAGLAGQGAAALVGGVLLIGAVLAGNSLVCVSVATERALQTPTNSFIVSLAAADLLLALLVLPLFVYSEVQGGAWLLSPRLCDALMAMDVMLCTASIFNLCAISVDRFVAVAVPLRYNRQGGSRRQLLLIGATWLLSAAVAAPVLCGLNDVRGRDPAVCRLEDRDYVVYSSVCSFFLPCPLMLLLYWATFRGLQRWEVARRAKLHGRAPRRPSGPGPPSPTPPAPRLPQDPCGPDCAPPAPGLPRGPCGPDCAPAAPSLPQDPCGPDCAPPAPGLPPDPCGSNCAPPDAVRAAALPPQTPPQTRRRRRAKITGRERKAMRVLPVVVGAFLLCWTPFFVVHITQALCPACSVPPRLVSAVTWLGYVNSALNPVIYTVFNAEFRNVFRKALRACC
Procedure: Binding at dopamine D2-like receptors was determined using previously described methods. (Chen et al. “Tranylcypromine substituted cis-hydroxycyclobutylnaphthamides as potent and selective dopamine D(3) receptor antagonists.” J. Med. Chem. 2014, 57, 4962-4968) Membranes were prepared from HEK293 cells expressing human D2R, D3R or D4R, grown in a 50:50 mix of DMEM and Ham's F12 culture media, supplemented with 20 mM HEPES, 2 mM L-glutamine, 0.1 mM non-essential amino acids, 1× antibiotic/antimycotic, 10% heat-inactivated fetal bovine serum, and 200 μg/mL hygromycin (Life Technologies, Grand Island, N.Y.) and kept in an incubator at 37° C. and 5% CO2. Upon reaching 80-90% confluence, cells were harvested using pre-mixed Earle's Balanced Salt Solution (EBSS) with […] EDTA (Life Technologies) and centrifuged at 3000 rpm for 10 min at 21° C. The supernatant was removed and the pellet was resuspended in 10 mL hypotonic lysis buffer (5 mM MgCl2.6H2O, 5 mM Tris, pH 7.4 at 4° C.) and centrifuged at 20,000 rpm for 30 min at 4° C. The pellet was then resuspended in fresh EBSS buffer made from 8.7 g/L Earle's Balanced Salts without phenol red (US Biological, Salem, Mass.), 2.2 g/L sodium bicarbonate, pH to 7.4. A Bradford protein assay (Bio-Rad, Hercules, Calif.) was used to determine the protein concentration and membranes were diluted to 500 μg/mL and stored in a −80° C. freezer for later use.
Radioligand competition binding experiments were conducted using thawed membranes. Test compounds were freshly dissolved in 30% DMSO and 70% H2O to a stock concentration of 100 μM. To assist the solubilization of free-base compounds, 10 μl of glacial acetic acid was added along with the DMSO. Each test compound was then diluted into 13 half-log serial dilutions using 30% DMSO vehicle; final test concentrations ranged from 10 μM to 10 pM. Previously frozen membranes were diluted in fresh EBSS to a 100 μg/mL (for hD2R or hD3R) or 200 μg/mL (hD4R) stock for binding. Radioligand competition experiments were conducted in glass tubes containing 300 μl fresh EBSS buffer with 0.2 mM sodium metabisulfite, 50 μl of diluted test compound, 100 μl of membranes (10 μg total protein for hD2R or hD3R, 20 μg total protein for hD4R), and 50 μl of [^3H]N-methylspiperone (0.4 nM final concentration; Perkin Elmer). Nonspecific binding was determined using 10 μM butaclamol (Sigma-Aldrich, St. Louis, Mo.) and total binding was determined with 30% DMSO vehicle. All compound dilutions were tested in triplicate and the reaction incubated for one hour at room temperature. The reaction was terminated by filtration through Whatman GF/B filters, presoaked for one hour in 0.5% polyethylenimine, using a Brandel R48 filtering manifold (Brandel Instruments, Gaithersburg, Md.). The filters were washed 3 times with 3 mL of ice cold EBSS buffer and transferred to scintillation vials. 3 mL CytoScint liquid scintillation cocktail (MP Biomedicals, Solon, Ohio) was added and vials were counted using a Perkin Elmer Tri-Carb 2910 TR liquid scintillation counter (Waltham, Mass.). IC50 values for each compound were determined from dose-response curves and Ki values were calculated using the Cheng-Prusoff equation; these analyses were performed using GraphPad Prism version 5.00 for Windows (GraphPad Software, San Diego, Calif.). Reported Ki values were determined from least three independent experiments.

human D2R = human D2R (Homo sapiens (Human), UniProt P14416); experiment: Radioligand competition binding, [3H]N-methylspiperone, HEK293 membranes expressing human D2R; details: Table 1A; HEK 293 cells transfected with hD2LR, [3H]N-methylspiperone; read-out: D2R Ki ± SEM
Chain of human D2R (P14416 whole entry): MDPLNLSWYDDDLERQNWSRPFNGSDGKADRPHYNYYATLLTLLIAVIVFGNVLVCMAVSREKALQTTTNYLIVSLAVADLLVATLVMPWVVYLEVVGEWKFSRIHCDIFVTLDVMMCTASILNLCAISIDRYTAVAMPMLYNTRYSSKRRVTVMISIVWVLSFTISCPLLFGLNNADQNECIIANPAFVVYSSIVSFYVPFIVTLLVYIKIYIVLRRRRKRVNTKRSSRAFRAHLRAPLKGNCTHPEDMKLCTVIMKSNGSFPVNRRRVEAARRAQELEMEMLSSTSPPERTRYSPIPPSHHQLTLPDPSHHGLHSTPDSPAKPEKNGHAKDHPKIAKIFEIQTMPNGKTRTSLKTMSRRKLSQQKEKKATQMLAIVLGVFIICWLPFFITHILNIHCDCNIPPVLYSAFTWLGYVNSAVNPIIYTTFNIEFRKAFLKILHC
Procedure: as §1, §2, §3

Structure (SMILES)	Ki (human D3R)	D2/D3 (human D3R)	Ki (human D4R)	D4/D2 (human D4R)	D4/D3 (human D4R)	Ki (human D2R)
CCc1cccc(N2CCN(CCCCNC(=O)c3cn4ccccc4n3)CC2)c1Cl [Compound 22, N-(4-(4-(2-chloro-3-ethylphenyl)piperazin-1-yl)butyl)imidazo[1,2-a]pyridine-2-carboxamide]	0.33 ± 0.085 nM	17.1	819 ± 175 nM	145.2	2482	5.64 ± 0.98 nM
CCc1cccc(N2CCN(CC(O)CCNC(=O)c3cn4ccccc4n3)CC2)c1Cl (stereo not drawn) [Compound 23, N-(4-(4-(2-Chloro-3-ethylphenyl)piperazin-1-yl)-3-hydroxybutyl)imidazo[1,2-a]pyridine-2-carboxamide]	4.23 ± 0.84 nM	45.6	11300 nM	58.5	2671	193 ± 40.5 nM
CCc1cccc(N2CCN(CCCCNC(=O)c3c(C)nc4sccn34)CC2)c1Cl [Compound 24, N-(4-(4-(2-chloro-3-ethylphenyl)piperazin-1-yl)butyl)-6-methylimidazo[2,1-b]thiazole-5-carboxamide]	0.94 ± 0.13 nM	4.9	143 ± 3.18 nM	30.8	152	4.65 ± 1.24 nM
CCc1c[nH]c(C(=O)NCCCCN2CCN(c3cccc(CC)c3Cl)CC2)n1 [Compound 25, N-(4-(4-(2-Chloro-3-ethylphenyl)piperazin-1-yl)butyl)-4-ethyl-1H-imidazole-2-carboxamide]	1.14 ± 0.17 nM	11.0	500 ± 30.9 nM	40.0	439	12.5 ± 1.07 nM
CCc1cccc(N2CCN(CCCCNC(=O)c3nc(C)c[nH]3)CC2)c1Cl [Compound 26, N-(4-(4-(2-Chloro-3-ethylphenyl)piperazin-1-yl)butyl)-4-methyl-1H-imidazole-2-carboxamide]	0.62 ± 0.096 nM	19.7	529 ± 42.3 nM	43.4	853	12.2 ± 2.58 nM
CCc1cccc(N2CCN(CC(O)CCNC(=O)c3nc(C)c[nH]3)CC2)c1Cl (stereo not drawn) [Compound 27, N-(4-(4-(2-Chloro-3-ethylphenyl)piperazin-1-yl)-3-hydroxybutyl)-4-methyl-1H-imidazole-2-carboxamide]	11.2 ± 2.66 nM	13.4	1960 ± 344 nM	13.1	175	150 ± 13.1 nM
CCc1cccc(N2CCN(C/C=C/CNC(=O)c3nc(C)c[nH]3)CC2)c1Cl [Compound 35, (E)-N-(4-(4-(2-Chloro-3-ethylphenyl)piperazin-1-yl)but-2-en-1-yl)-4-methyl-1H-imidazole-2-carboxamide]	1.28 ± 0.22 nM	12.6	503 ± 157 nM	31.2	393	16.1 ± 1.2 nM
CCc1cccc(N2CCN(CCC(O)CNC(=O)c3cc4ccccc4[nH]3)CC2)c1Cl (stereo not drawn) [Compound 40, N-(4-(4-(2-Chloro-3-ethylphenyl)piperazin-1-yl)-2-hydroxybutyl)-1H-indole-2-carboxamide]	0.2 ± 0.018 nM	34.2	305 ± 70.5 nM	44.7	1525	6.83 ± 0.53 nM
